In patent US7981912B2, “Indole acetic acids exhibiting CRTH2 receptor antagonism and uses thereof” (Wyeth LLC, priority 2004, dated 2011):

These molecules were tested against T1, human CRTH2 (Homo sapiens, UniProt Q9Y5Y4) (assay: CRTH-2 binding assay (scintillation proximity assay, inhibition of 3H-PGD2 binding)). Details: inhibition of 3H-PGD2 (3.6 nM) binding to HEK 293EBNA-hCRTH2 membranes; Ki calculated from IC50.
T1 sequence (Q9Y5Y4 1-395): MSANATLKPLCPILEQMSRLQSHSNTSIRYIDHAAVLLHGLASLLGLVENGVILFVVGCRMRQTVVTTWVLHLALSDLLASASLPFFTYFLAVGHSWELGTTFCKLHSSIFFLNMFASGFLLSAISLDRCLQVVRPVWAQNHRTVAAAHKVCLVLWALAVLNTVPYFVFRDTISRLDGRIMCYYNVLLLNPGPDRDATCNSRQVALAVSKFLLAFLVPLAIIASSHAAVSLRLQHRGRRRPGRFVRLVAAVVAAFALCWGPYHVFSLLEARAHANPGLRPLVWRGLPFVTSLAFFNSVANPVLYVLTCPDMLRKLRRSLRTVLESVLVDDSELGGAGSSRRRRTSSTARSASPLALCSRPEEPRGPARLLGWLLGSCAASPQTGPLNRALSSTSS
Parameters: expressed in transfected cells; host or cells: HEK 293EBNA-hCRTH2 (membrane preparation)
Experimental: A CRTH2 binding assay was developed to measure the ability of compounds to inhibit the binding of PGD2 to human CRTH2 using a scintillation proximity assay.
Membranes containing hCRTH2 receptors were prepared from HEK 293EBNA-hCRTH2 cells (a HEK 293EBNA cell line stably expressing human CRTH2). The cells were grown to confluency, harvested and washed with PBS. The cells were resuspended in 10 mM Hepes pH 7.4, 1 mM EDTA and protease inhibitors and incubated for 30 min on ice. The cells were homogenized and centrifuged for 10 min at 1000×g. The supernate was centrifuged for 30 min at 100,000×g and the membrane pellet was then resusupended in 10 mM Hepes pH 7.4 and 1 mM EDTA. The protein concentration of the membrane preparation was determined by Bradford assay (Bio-Rad).
The ability of compounds to inhibit the interaction of PGD2 to human CRTH2 was determined at seven compound concentrations. Compounds were serially diluted in DMSO then diluted into CRTH2 buffer without glycerol (10 mM Hepes pH 7.4, 1 mM EDTA, 10 mM MnCl2) to six times the final desired concentration. 20 μL of the diluted compounds were transferred into non-surface binding 96 well plates (Corning). Each concentration was done in triplicate. In addition to test compounds, each plate contained 12 control wells. Six of these wells contained 20 μL of CRTH2 buffer without glycerol. These wells were used to measure total binding. Six wells contained 20 μL of CRTH2 buffer without glycerol plus 1.5 mM indomethacin. These wells were used to measure non-specific binding. Next, HEK 293EBNA-hCRTH2 membranes were resuspended in CRTH2 buffer with glycerol (10 mM Hepes pH 7.4, 1 mM EDTA, 10 mM MnCl2, 25% glycerol) so that the final concentration was approximately 20 μg protein/100 μL. Polylysine coated yttrium silicate SPA beads (Amershamn) were added to the membrane mix to a concentration of 0.4 mg/100 μL and finally ^3H-PGD2 was added to the membrane/SPA bead mix to 3.6 nM. 100 μL of the membrane/SPA bead/^3H-PGD2 mix was added to each well of the non-surface binding plates containing the diluted compound plus controls. The plates were incubated for 2 hours at room temperature with shaking and then the plates were counted on a Microbeta scintillation counter (Perkin Elmer) for 1 min per well.
IC50 values were determined from the experimental results by nonlinear regression using Prism 4.0 software. The IC50 values were then used in conjunction with the […] for hCRTH2 and the ^3H-PGD2 concentration used in the experiment to calculate the Ki for each compound.

| Ki | Structure (SMILES) |
| --- | --- |
| < 10000 nM | O=C(O)Cn1cc(C2c3ccccc3S(=O)(=O)N2Cc2ccc3ccccc3n2)c2ccccc21 (stereo not drawn) [Example 30, [3-(1,1-Dioxo-2-quinolin-2-ylmethyl-2,3-dihydro-1H-1λ^6-benzo[d]isothiazol-3-yl)-indol-1-yl]-acetic acid] |
| < 1000 nM | O=C(O)Cn1cc(C2c3ccccc3S(=O)(=O)N2Cc2cccc(Oc3ccc(F)cc3)c2)c2ccccc21 (stereo not drawn) [Example 31, (3-{2-[3-(4-Fluoro-phenoxy)-benzyl]-1,1-dioxo-2,3-dihydro-1H-1λ^6benzo[d]isothiazol-3-yl}-indol-1-yl)-acetic acid] |
| < 1000 nM | O=C(O)Cn1cc(C2c3ccccc3S(=O)(=O)N2Cc2ccccc2-c2ccccc2)c2ccccc21 (stereo not drawn) [Example 32, [3-(2-Biphenyl-2-ylmethyl-1,1-dioxo-2,3-dihydro-1H-1λ^6-benzo[d]isothiazol-3-yl)-indol-1-yl]-acetic acid] |
| < 1000 nM | O=C(O)Cn1cc(C2c3ccccc3S(=O)(=O)N2Cc2csc(-c3cccs3)n2)c2ccccc21 (stereo not drawn) [Example 33, {3-[1,1-Dioxo-2-(2-thiophen-2-yl-thiazol-4-ylmethyl)-2,3-dihydro-1H-1λ^6-benzo[d]isothiazol-3-yl]-indol-1-yl}-acetic acid] |
| < 1000 nM | O=C(O)Cn1cc(C2c3ccccc3S(=O)(=O)N2Cc2csc(-c3ccc(Cl)cc3)n2)c2ccccc21 (stereo not drawn) [Example 34, (3-{2-[2-(4-Chloro-phenyl)-thiazol-4-ylmethyl]-1,1-dioxo-2,3-dihydro-1H-1λ^6-benzo[d]isothiazol-3-yl}-indol-1-yl)-acetic acid] |
| < 100 nM | Cc1noc(C)c1CN1C(c2cn(CC(=O)O)c3ccccc23)c2ccccc2S1(=O)=O (stereo not drawn) [Example 35, {3-[2-(3,5-Dimethyl-isoxazol-4-ylmethyl)-1,1-dioxo-2,3-dihydro-1H-1λ^6benzo[d]isothiazol-3-yl]-indol-1-yl}-acetic acid] |
| < 100 nM | Cc1onc(-c2ccccc2)c1CN1C(c2c(C)n(CC(=O)O)c3ccccc23)c2ccccc2S1(=O)=O (stereo not drawn) [Example 36, {2-Methyl-3-[2-(5-methyl-3-phenyl-isoxazol-4-ylmethyl)-1,1-dioxo-2,3-dihydro-1H-1λ^6-benzo[d]isothiazol-3-yl]-indol-1-yl}-acetic acid] |
| < 10000 nM | Cc1c(C2c3ccccc3S(=O)(=O)N2CC(=O)Nc2ccc(F)cc2)c2ccccc2n1CC(=O)O (stereo not drawn) [Example 37, (3-{2-[(4-Fluoro-phenylcarbamoyl)-methyl]-1,1-dioxo-2,3-dihydro-1H-1λ^6-benzo[d]isothiazol-3-yl}-2-methyl-indol-1-yl)-acetic acid] |
| < 10000 nM | Cc1c(C2c3ccccc3S(=O)(=O)N2CCO)c2ccccc2n1CC(=O)O (stereo not drawn) [Example 38, {3-[2-(2-Hydroxy-ethyl)-1,1-dioxo-2,3-dihydro-1H-1λ^6-benzo[d]isothiazol-3-yl]-2-methyl-indol-1-yl}-acetic acid] |
| < 100 nM | Cc1c(C2c3ccccc3S(=O)(=O)N2CCOc2ccc(Cl)cc2)c2ccccc2n1CC(=O)O (stereo not drawn) [Example 39, (3-{2-[2-(4-Chloro-phenoxy)-ethyl]-1,1-dioxo-2,3-dihydro-1H-1λ^6-benzo[d]isothiazol-3-yl}-2-methyl-indol-1-yl)-acetic acid] |
| < 1000 nM | CCOC(=O)CN1C(c2c(C)n(CC(=O)O)c3ccccc23)c2ccccc2S1(=O)=O (stereo not drawn) [Example 40, [3-(2-Ethoxycarbonylmethyl-1,1-dioxo-2,3-dihydro-1H-1λ^6benzo[d]isothiazol-3-yl)-2-methyl-indol-1-yl]-acetic acid] |
| < 1000 nM | Cc1c(C2c3ccccc3S(=O)(=O)N2CC2COc3ccccc3O2)c2ccccc2n1CC(=O)O (stereo not drawn) [Example 41, {3-[2-(2,3-Dihydro-benzo[1,4]dioxin-2-ylmethyl)-1,1-dioxo-2,3-dihydro-1H-1λ^6-benzo[d]isothiazol-3-yl]-2-methyl-indol-1-yl}-acetic acid] |
| < 1000 nM | Cc1nc(CN2C(c3c(C)n(CC(=O)O)c4ccccc34)c3ccccc3S2(=O)=O)cs1 (stereo not drawn) [Example 42, {2-Methyl-3-[2-(2-methyl-thiazol-4-ylmethyl)-1,1-dioxo-2,3-dihydro-1H-1λ^6benzo[d]isothiazol-3-yl]-indol-1-yl}-acetic acid] |
| < 1000 nM | Cc1c(C2c3ccccc3S(=O)(=O)N2Cc2cccc(C(F)(F)F)c2)c2ccccc2n1CC(=O)O (stereo not drawn) [Example 43, {3-[1,1-Dioxo-2-(3-trifluoromethyl-benzyl)-2,3-dihydro-1H-1λ^6-benzo[d]isothiazol-3-yl]-2-methyl-indol-1-yl}-acetic acid] |
| < 1000 nM | Cc1c(C2c3ccccc3S(=O)(=O)N2CCC(C)C)c2ccccc2n1CC(=O)O (stereo not drawn) [Example 44, {2-Methyl-3-[2-(3-methyl-butyl)-1,1-dioxo-2,3-dihydro-1H-1λ^6-benzo[d]isothiazol-3-yl]-indol-1-yl}-acetic acid] |
| < 1000 nM | C=CCN1C(c2c(C)n(CC(=O)O)c3ccccc23)c2ccccc2S1(=O)=O (stereo not drawn) [Example 45, [3-(2-Allyl-1,1-dioxo-2,3-dihydro-1H-1λ^6-benzo[d]isothiazol-3-yl)-2-methyl-indol-1-yl]-acetic acid] |
| < 1000 nM | Cc1c(C2c3ccccc3S(=O)(=O)N2CCCOc2ccccc2)c2ccccc2n1CC(=O)O (stereo not drawn) [Example 46, {3-[1,1-Dioxo-2-(3-phenoxy-propyl)-2,3-dihydro-1H-1λ^6-benzo[d]isothiazol-3-yl]-2-methyl-indol-1-yl}-acetic acid] |
| < 1000 nM | Cc1c(C2c3ccccc3S(=O)(=O)N2C(C)C)c2ccccc2n1CC(=O)O (stereo not drawn) [Example 47, [3-(2-Isopropyl-1,1-dioxo-2,3-dihydro-1H-1λ^6-benzo[d]isothiazol-3-yl)-2-methyl-indol-1-yl]-acetic acid] |
| < 1000 nM | Cc1ccc2c(c1)c(C1c3ccccc3S(=O)(=O)N1Cc1nc3ccccc3s1)cn2CC(=O)O (stereo not drawn) [Example 48, [3-(2-Benzothiazol-2-ylmethyl-1,1-dioxo-2,3-dihydro-1H-1λ^6-benzo[d]isothiazol-3-yl)-5-methyl-indol-1-yl]-acetic acid] |
| < 1000 nM | Cc1ccc2c(c1)c(C1c3ccccc3S(=O)(=O)N1Cc1ccc(F)cc1)cn2CC(=O)O (stereo not drawn) [Example 49, {3-[2-(4-Fluoro-benzyl)-1,1-dioxo-2,3-dihydro-1H—1λ^6-benzo[d]isothiazol-3-yl]-5-methyl-indol-1-yl}-acetic acid] |
| < 10000 nM | Cc1ccc2c(c1)c(C1c3ccccc3S(=O)(=O)N1CCCOCc1ccccc1)cn2CC(=O)O (stereo not drawn) [Example 50, {3-[2-(3-Benzyloxy-propyl)-1,1-dioxo-2,3-dihydro-1H-1λ^6-benzo[d]isothiazol-3-yl]-5-methyl-indol-1-yl}-acetic acid] |
| < 10000 nM | Cc1ccc2c(c1)c(C1c3ccccc3S(=O)(=O)N1Cc1cccc(C(F)(F)F)c1)cn2CC(=O)O (stereo not drawn) [Example 51, {3-[1,1-Dioxo-2-(3-trifluoromethyl-benzyl)-2,3-dihydro-1H-1λ^6-benzo[d]isothiazol-3-yl]-5-methyl-indol-1-yl}-acetic acid] |
| < 10000 nM | COCCCN1C(c2cn(CC(=O)O)c3ccc(C)cc23)c2ccccc2S1(=O)=O (stereo not drawn) [Example 52, {3-[2-(3-Methoxy-propyl)-1,1-dioxo-2,3-dihydro-1H-1λ^6-benzo[d]isothiazol-3-yl]-5-methyl-indol-1-yl}-acetic acid] |
| < 10000 nM | Cc1ccc2c(c1)c(C1c3ccccc3S(=O)(=O)N1C(C)C#N)cn2CC(=O)O (stereo not drawn) [Example 53, {3-[2-(Cyano-methyl-methyl)-1,1-dioxo-2,3-dihydro-1H-1λ^6-benzo[d]isothiazol-3-yl]-5-methyl-indol-1-yl}-acetic acid] |
